Experimental data as given in US6228872A, “Neurotrophic diamide and carbamate agents” (Bristol-Myers Squibb Company, priority 1999, dated 2001).
Where two headings read alike, the source gives them in different places. Each block holds one compound with its values, some of them ahead of it.

Tests used:
FKBP12 = FKBP12 (Homo sapiens, UniProt P62942); experiment: FKBP12 Rotamase Inhibition Assay; assay type: biochemical; settings: for inhibition at 10 µM: read-out: % inhib. at 10 μM; for Ki: apparent Ki, 4° C., substrate succinyl-Ala-Leu-Pro-Phe-p-nitroanilide
Chain of FKBP12 (P62942 whole entry, species assumed): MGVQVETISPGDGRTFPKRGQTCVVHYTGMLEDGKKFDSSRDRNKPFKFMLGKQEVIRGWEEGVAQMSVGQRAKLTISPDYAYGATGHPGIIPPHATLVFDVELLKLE
Description: FKBP12 Rotamase Inhibition Assay
The rotamase activity of FKBP-12 was measured by an adaptation of the assay described by Kofron et al. (Biochemistry, 30, pp. 6127-6134 (1991)). The assay was carried out at 4° C. with 1 mg chymotrypsin/mL of assay with succinyl-Ala-Leu-Pro-Phe-p-nitroanilide as the substrate. Chymotrypsin rapidly hydrolyzes the peptide bond on the C-terminal side of the Phe of the trans form of the peptide and releases the chromogenic p-nitroaniline. The rate of the reaction is controlled by the rate of conversion of the cis form of the peptide to the trans-form, the reaction catalyzed by FKBP12. The apparent Ki values for inhibition of the rotamase activity were determined by measuring decreases in the first order rate constant of the reaction catalyzed by FKBP12 as a function of the concentrations of the compounds described herein. Ki is the concentration of the compound that causes 50 percent inhibition of rotamase activity which is indicative of neurite outgrowth activity.

[1] = in vitro and in vivo; cited from earlier work
HIV-infected cells = settings: cited from earlier work
[2] = Table 2, 1 μM (values marked *), read-out: % inhib. at 1 μM*
[3] = Table 3, 1 μM, read-out: % rotamase inhib. at 1 μM
[4] = Table 4, 1 μM, read-out: % rotamase inhib. at 1 μM

Structure (SMILES): COc1cc(C(F)(F)C(=O)N2CCC[C@H]2COC(=O)N(CCCc2cccnc2)Cc2ccccc2)cc(OC)c1OC [Example 28, N-(3,4,5-Trimethoxyphenyl)-difluoroacetyl-L-pyrrolidinylmethyl-[N',N'-3-(3-pyridyl)propyl-benzylamino]carbamate]
- inhibition at 10 µM (FKBP12; Table 2): 99%
- Ki (FKBP12; Table 2): 0.577 µM

Structure (SMILES): COc1cc(C(F)(F)C(=O)N2CCC[C@H]2COC(=O)N(CCCCc2cccnc2)CCc2ccccc2)cc(OC)c1OC [Example 30, N-(3,4,5-Trimethoxyphenyl)-difluoroacetyl-L-pyrrolidinylmethyl-[N',N'-4-(3-pyridyl)butyl-2-phenylethylamino]carbamate]
- inhibition at 10 µM (FKBP12; Table 2): 97%

Structure (SMILES): COc1cc(C(F)(F)C(=O)N2CCC[C@H]2COC(=O)N(CCCCc2cccnc2)Cc2ccccc2)cc(OC)c1OC [Example 31, N-(3,4,5-Trimethoxyphenyl)-difluoroacetyl-L-pyrrolidinylmethyl-[N',N'-4-(3-pyridyl)butyl-benzylamino]carbamate]
- inhibition at 1 µM (FKBP12; [2]): 63%
- Ki (FKBP12; Table 2): 0.686 µM

Structure (SMILES): COc1ccc(CCN(CCCc2cccnc2)C(=O)OC[C@@H]2CCCN2C(=O)C(F)(F)c2cc(OC)c(OC)c(OC)c2)cc1OC [Example 33]
- inhibition at 1 µM (FKBP12; [3]): 96%

Structure (SMILES): COc1cc(C(F)(F)C(=O)N2CCC[C@H]2COC(=O)N(CCCc2cccnc2)CCc2cccc(C(F)(F)F)c2)cc(OC)c1OC [Example 34, N-(3,4,5-Trimethoxyphenyl)-difluoroacetyl-L-pyrrolidinylmethyl-[N',N'-3-(3-pyridyl)propyl-2-(3-trifluoromethylphenyl)ethylamino]carbamate]
- inhibition at 1 µM (FKBP12; [3]): 96%

Structure (SMILES): COc1cc(C(F)(F)C(=O)N2CCC[C@H]2COC(=O)N(CCCc2ccc(C(=O)O)cc2)CCCc2cccnc2)cc(OC)c1OC [Example 35, N-(3,4,5-Trimethoxyphenyl)-difluoroacetyl-L-pyrrolidinylmethyl-[N',N'-3-(3-pyridyl)propyl-3-(4-carboxyphenyl)propylamino]carbamate]
- inhibition at 1 µM (FKBP12; [3]): 94%

Structure (SMILES): COc1cc(C(F)(F)C(=O)N2CCC[C@H]2COC(=O)N(CCCc2ccc(C(=O)OCc3ccccc3)cc2)CCCc2cccnc2)cc(OC)c1OC [Example 36, N-(3,4,5-Trimethoxyphenyl)-difluoroacetyl-L-pyrrolidinylmethyl-[N',N'-3-(3-pyridyl)propyl-3-(4-benzyloxycarbonylphenyl)propylamino]carbamate]
- inhibition at 1 µM (FKBP12; [3]): 77%

Structure (SMILES): COc1cc(CCCN(CCCc2cccnc2)C(=O)OC[C@@H]2CCCN2C(=O)C(F)(F)c2cc(OC)c(OC)c(OC)c2)cc(OC)c1OC [Example 39, N-(3,4,5-Trimethoxyphenyl)-difluoroacetyl-L-pyrrolidinylmethyl-[N',N'-3-(3-pyridyl)propyl-3-(3,4,5-trimethoxyphenyl)propylamino]carbamate]
- inhibition at 1 µM (FKBP12; [3]): 92%

Structure (SMILES): COc1cc(C(F)(F)C(=O)N2CCCC[C@H]2CCC(=O)N(CCCc2ccccc2)CCCc2cccnc2)cc(OC)c1OC [Example 44, N,N-(3-Phenylpropyl)-3-(3-pyridyl)propyl-2-[(S)-N'-(3,4,5-Trimethoxyphenyl)-difluoroacetyl-2-piperidinyl]propionamide]
- inhibition at 1 µM (FKBP12; [4]): 0%

Structure (SMILES): COc1cc(C(F)(F)C(=O)N2CCC[C@H]2CCC(=O)N(CCCc2ccccc2)CCCc2cccnc2)cc(OC)c1OC [Example 45, N,N-(3-Phenylpropyl)-3-(3-pyridyl)propyl-2-[(S)-N'-(3,4,5-Trimethoxyphenyl)-difluoroacetyl-2-pyrrolidinyl]propionamide]
- inhibition at 1 µM (FKBP12; [4]): 42%

Structure (SMILES): C=CC[C@@H]1/C=C(\C)C[C@H](C)C[C@H](OC)[C@H]2O[C@@](O)(C(=O)C(=O)N3CCCC[C@H]3C(=O)O[C@H](/C(C)=C/[C@@H]3CC[C@@H](O)[C@H](OC)C3)[C@H](C)[C@@H](O)CC1=O)[C@H](C)C[C@@H]2OC [FK506]
- neurotrophic properties [1]: possess neurotrophic properties in vitro and in vivo
- inhibition of growth of HIV-infected cells (HIV-infected cells): inhibits the growth of HIV-infected cells

The next lines start with the values.

- inhibition at 1 µM (FKBP12; [2]): 80%
Structure (SMILES): COc1cc(C(F)(F)C(=O)N2CCC[C@H]2COC(=O)N(CCCCc2cccnc2)CCCc2ccccc2)cc(OC)c1OC [Example 29, N-(3,4,5-Trimethoxyphenyl)-difluoroacetyl-L-pyrrolidinylmethyl-[N',N'-4-(3-pyridyl)butyl-3-phenylpropylamino]carbamate]

- inhibition at 1 µM (FKBP12; [3]): 93%
Structure (SMILES): COc1cccc(CCN(CCCc2cccnc2)C(=O)OC[C@@H]2CCCN2C(=O)C(F)(F)c2cc(OC)c(OC)c(OC)c2)c1 [Example 32, N-(3,4,5-Trimethoxyphenyl)-difluoroacetyl-L-pyrrolidinylmethyl-[N',N'-3-(3-pyridyl)propyl-2-(3-methoxyphenyl)ethylamino]carbamate]

- inhibition at 1 µM (FKBP12; [3]): 93%
Structure (SMILES): COc1cccc(CCCN(CCCc2cccnc2)C(=O)OC[C@@H]2CCCN2C(=O)C(F)(F)c2cc(OC)c(OC)c(OC)c2)c1 [Example 37, N-(3,4,5-Trimethoxyphenyl)-difluoroacetyl-L-pyrrolidinylmethyl-[N',N'-3-(3-pyridyl)propyl-3-(3-methoxyphenyl)propylamino]carbamate]

- inhibition at 1 µM (FKBP12; [3]): 95%
Structure (SMILES): COc1ccc(CCCN(CCCc2cccnc2)C(=O)OC[C@@H]2CCCN2C(=O)C(F)(F)c2cc(OC)c(OC)c(OC)c2)cc1 [Example 38, N-(3,4,5-Trimethoxyphenyl)-difluoroacetyl-L-pyrrolidinylmethyl-[N',N'-3-(3-pyridyl)propyl-3-(4-methoxyphenyl)propylamino]carbamate]

- inhibition at 1 µM (FKBP12; [3]): 98%
Structure (SMILES): COc1ccc(CCCCN(CCCc2cccnc2)C(=O)OC[C@@H]2CCCN2C(=O)C(F)(F)c2cc(OC)c(OC)c(OC)c2)cc1OC [Example 40, N-(3,4,5-Trimethoxyphenyl)-difluoroacetyl-L-pyrrolidinylmethyl-[N',N'-3-(3-pyridyl)propyl-4-(3,4-dimethoxyphenyl)butylamino]carbamate]
